The values that follow come from paper PMC5918173, “Characterization of Transglutaminase 2 activity inhibitors in monocytes in vitro and their effect in a mouse model for multiple sclerosis” (PLoS ONE, 2018).

In general, IC50 refers to the concentration at which inhibition is half-maximal.

The experiment has as its target T1, human TG2 in THP-1/TG2 macrophages (Homo sapiens, UniProt P21980).
T1 construct: expressed in transfected cells; host or cells: THP-1 (TIB-202, ATCC) stably transduced with lentiviral pCDH-hTG2, PMA-differentiated, retinoic acid-stimulated
T1 sequence (P21980 1-687): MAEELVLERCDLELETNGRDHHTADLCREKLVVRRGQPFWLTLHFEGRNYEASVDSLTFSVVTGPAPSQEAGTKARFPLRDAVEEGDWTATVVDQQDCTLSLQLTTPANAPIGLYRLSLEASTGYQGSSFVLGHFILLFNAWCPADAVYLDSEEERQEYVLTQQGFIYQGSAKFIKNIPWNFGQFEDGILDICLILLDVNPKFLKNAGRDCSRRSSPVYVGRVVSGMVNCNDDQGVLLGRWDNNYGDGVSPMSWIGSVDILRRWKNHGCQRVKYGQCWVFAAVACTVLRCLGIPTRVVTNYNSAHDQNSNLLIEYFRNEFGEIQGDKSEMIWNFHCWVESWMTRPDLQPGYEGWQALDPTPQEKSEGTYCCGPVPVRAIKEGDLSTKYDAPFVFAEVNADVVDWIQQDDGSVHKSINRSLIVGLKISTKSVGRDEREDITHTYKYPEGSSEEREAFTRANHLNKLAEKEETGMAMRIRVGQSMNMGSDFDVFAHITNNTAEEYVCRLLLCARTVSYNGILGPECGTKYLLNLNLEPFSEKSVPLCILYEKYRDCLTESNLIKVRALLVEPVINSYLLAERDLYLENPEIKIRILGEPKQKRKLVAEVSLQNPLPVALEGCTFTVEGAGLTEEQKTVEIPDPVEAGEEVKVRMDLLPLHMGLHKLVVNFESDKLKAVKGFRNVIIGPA
Description: Cellular inhibition of TG activity in THP-1/TG2 cells (BAP incorporation). Particulars: TG2 overexpressing THP-1 macrophages, Fig 2D. The format is cell-based. The method, then:
Human monocytic THP-1 cells (TIB-202, ATCC) were transduced with a lentiviral vector (pCDH-hTG2, gift from Prof K. Mehta, University of Texas, USA) to overexpress human TG2, to ensure high protein levels in addition to their constitutive expression that can be inhibited. To obtain a stable TG2 overexpressing cell line, transduced cells (THP-1/pCDH-hTG2 (THP-1/TG2)) were positively selected with puromycin and cultured at 37°C and 5% CO2 in air in RPMI-1640 medium (Gibco) supplemented with 10% fetal calf serum (FCS; Gibco), and 50 Units/ml of penicillin and 50 μg/ml streptomycin (Gibco).
THP-1/TG2 cells cultured with 3% FCS were differentiated into macrophages with 250 nM phorbol-12-myristate-13-acetate (Sigma) for 48 h hours. Simultaneously, the cells were stimulated with 1 μM retinoic acid (Fluka) as TG2 expression inducer to ensure maximal TG2 expression and activity. The in vitro TG activity inhibition assay was performed as previously described. In detail, the cells were washed with serum free medium and incubated for 4 h (37°C, 5% CO2) with 1 mM of the TG substrate 5-(biotinamido) pentylamine (BAP, Pierce) in serum free medium. […] The total protein concentration was determined with the BCA method (Pierce, according to protocol) and adjusted to the same concentration in all samples. […] The optical density at 492 nm was measured.

As for `C=CC(=O)NC1CCN(S(=O)(=O)c2cccc3c(NC(=O)c4ccc(OC)c(OC)c4)cccc23)CC1` [BJJF078, 3,4-Dimethoxy-N-(5-[4-(acryloylamino)piperidine-1-sulfonyl]-naphthalen-1-yl)-benzamide], the IC50 (read-out: IC50 cellular TG2 transamidating activity) is 1800 nM.
Regarding `O=C(NCC1CC(Br)=NO1)C1CCCN1C(=O)OCc1cnc2ccccc2c1` (centres unmarked) [ERW1041E, 2-[(3-Bromo-4,5-dihydro-isoxazol-5-ylmethyl)-carbamoyl]-pyrrolidine-1—carboxylic acid quinolin-3-ylmethyl ester], the “effect on cellular TG2 activity” value (0.03 to 100 μM) is “no effect”.
